Publication PMC2752819 (Assay and drug development technologies, 2008)
Like-named read-outs stand apart in the source and are kept apart here.

Legend:
MKP-1 = molecular target: T1, MKP-1 (Homo sapiens, UniProt P28562); assay: biochemical
T1 sequence (P28562 1-367): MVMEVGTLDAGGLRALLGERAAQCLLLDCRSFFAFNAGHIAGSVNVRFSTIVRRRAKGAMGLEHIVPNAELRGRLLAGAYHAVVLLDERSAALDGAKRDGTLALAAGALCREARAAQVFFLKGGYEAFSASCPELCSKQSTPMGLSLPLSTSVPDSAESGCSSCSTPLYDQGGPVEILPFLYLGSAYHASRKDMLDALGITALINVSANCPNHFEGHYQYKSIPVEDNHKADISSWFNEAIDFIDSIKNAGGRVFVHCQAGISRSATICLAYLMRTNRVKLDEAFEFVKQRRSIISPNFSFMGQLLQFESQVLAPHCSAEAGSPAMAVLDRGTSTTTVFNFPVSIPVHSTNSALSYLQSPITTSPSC

[1] = cited from earlier work
[2] = MKP-1 + 25 mM DTT IC50, 25 mM DTT
[3] = read-out: MKP-1 + 1 mM DTT % inhibition at 50 μM
[4] = read-out: MKP-1 + 1 mM DTT + catalase % inhibition at 50 μM
[5] = read-out: MKP-1 + 25 mM DTT % inhibition at 50 μM
[6] = MKP-1 + 1 mM DTT + catalase IC50, 1 mM DTT + 100 U of catalase

SMILES | IC50 (MKP-1; [2]) [µM] | inhibition at 50 µM (MKP-1; [3]) [%] | inhibition at 50 µM (MKP-1; [4]) [%] | inhibition at 50 µM (MKP-1; [5]) [%] | IC50 (MKP-1; [6]) [µM] | H2O2 generation in the presence of DTT [1]
CCCCn1c(NC(=O)c2ccccc2)c(C#N)c2nc3ccccc3nc21 [compound 3712327, N-(1-butyl-3-cyanopyrrolo[5,4-b]quinoxalin-2-yl)benzamide] | > 50 | 79.9 | 69.9 | -5.25 | – | –
Cn1ncnc2c(=O)n(C)c(=O)nc1-2 [compound 4251194, 1,6-dimethylpyrimido[5,6-e][1,2,4]triazine-5,7-dione] | 5.68 | 94.4 | -27.2 | 98 | > 50 | –
O=C1C(=O)c2ccccc2-c2ccccc21 [9,10-phenanthrenedione] | – | – | – | – | – | generate significant amounts of H2O2
CCn1nc(-c2ccccc2)nc2c(=O)n(C)c(=O)nc1-2 [compound 845167, 1-ethyl-6-methyl-3-phenylpyrimido[5,6-e][1,2,4]triazine-5,7-dione] | 4.9 | 95.6 | -66.3 | 96.2 | > 50 | –
CCn1nc(-c2cccs2)nc2c(=O)n(C)c(=O)nc1-2 [compound 850758, 1-ethyl-6-methyl-3-thiophen-2-ylpyrimido[5,6-e][1,2,4]triazine-5,7-dione] | 4.43 | 94.4 | -92.2 | 98.2 | > 50 | –
N#Cc1c(N)sc(=S)c2c1CCN(Cc1ccccc1)C2 [compound 845964, 3-amino-7-(phenylmethyl)-1-sulfanylidene-6,8-dihydro-5H-thiopyrano[5,4-c]pyridine-4-carbonitrile] | > 50 | 95.2 | 47.7 | 35.7 | > 50 | –
